What was measured:
Type in all cases: cell-based, human
A549 lung cancer cell = test: MTT cell growth inhibition assay, A549
Excerpt: (§1) All human cell lines were used in this study. MGC-803 late-stage differentiation gastric cancer cell, A549 lung cancer cell, HepG2 hepatoma cell, AGS gastric cancer cell, BEL-7402 liver cancer cell, HCT-116 colorectal cancer cell, HeLa cervical cancer cell, SGC-7901 early differentiation gastric cancer cell, L-02 normal liver cell, MCF-7 breast cancer cell, and MCF-10A normal breast cell were initially purchased from American Type Culture Collection (ATCC, Manassas, VA, USA). RPMI-1640 media, Dulbecco’s modified Eagle’s medium (DMEM), and foetal bovine serum (FBS) were provided from Gibco Company (Grand Island, NY, USA). The cells were maintained in DMEM or RPMI-1640, supplemented with 10% FBS, 100 IU/mL penicillin and […] (Grand Island, NY, USA), and at 37 °C in a humidified atmosphere containing 5% CO2.
(§2) Cells were plated in 96-well plates at a density of 30–40% to ensure exponential growth throughout the experimental period, and then allowed to adhere for 1 day[21]. Next, the cells were treated with four serial concentrations (1, 10, 50, and 100 µM) of each compound. Taxol, CA-4, and CA-4P (phosphorylated form of CA-4) were used as positive controls. After 48 h incubation, MTT solution was added to each well at a final concentration of 2 mg/mL, and incubated for an additional 4 h. Next, the MTT solution was removed and 150 µL of dimethyl sulphoxide (DMSO)/well was added (Sigma-Aldrich, St Louis, MO, USA). The plates were shaken vigorously at RT to ensure complete solubilisation, and absorption at 492 nm was determined.
(§3) According to standard protocol, preliminary in vitro anti-proliferative activities of the synthesised compounds were evaluated by MTT assay, using nine human cancer cell lines (MGC-803, A549, HepG2, AGS, BEL-7402, HCT116, HeLa, SGC-7901, and MCF-7) and two normal human cell lines (L-02 and MCF-10A), and compared with those of CA-4, CA-4P, and taxol.

HepG2 hepatoma cell = test: MTT cell growth inhibition assay, HepG-2
Excerpt: as §1, §2, §3

AGS cells = test: MTT cell growth inhibition assay, AGS
Excerpt: as §1, §2, §3

L-02 normal liver cell = test: MTT cell growth inhibition assay, L-02 (normal); conditions: Homo sapiens, 48 h incubation, L-02 normal cells
Excerpt: as §1, §2, §3

BEL-7402 cells = test: Analysis for cell cycle by flow cytometry; conditions: BEL-7402, 12 h incubation, concentration-dependent increase from-to (0.01, 0.05, 0.1 µM)
Experimental: BEL-7402 cells were plated 6-well plates with 5.0 × 10^5 cells/well for overnight (O/N) and were synchronised at the G0 phase by serum starvation (0.1% FBS in RPMI-1640) for 24 h. Then the cells were incubated with 0.01, 0.05, 0.1 µM of 6h and 0.1 μM of taxol, respectively. Vehicle group was treated with 0.1% DMSO. Following 12 h of incubation, the cells were detached with 0.05% trypsin/5 mM EDTA and centrifuged at 1000 rpm for 10 min, and fixed in 70% ethanol at −20 °C for O/N. Then, the cells were subsequently analysed the cell cycle distribution by flow cytometry using a FACSCalibur flow cytometer with Cell Quest software (Becton-Dickinson, Franklin Lakes, NJ, USA), plotting at least 30,000 events per sample[22]. The percentage of cells in the G0/G1, S, and G2/M phases of the cell cycle were determined using the ModFit LT version 4.0 software package (Verity Software, Topsham, ME, USA).

`COc1cc(/C(C#N)=C/c2ccc(C)cc2)cc(OC)c1OC` [Compound 6h, (Z)-3-(p-Tolyl)-2-(3,4,5-trimethoxyphenyl)acrylonitrile] was tested, and the IC50 (A549 lung cancer cell; Homo sapiens, MTT, 48 h incubation, A549) was 530 ± 23 nM, the “SI IC50 (L-02/A549)” value (A549 lung cancer cell; selectivity index, IC50 (L-02)/IC50 (A549)) was over 188.6 and the IC50 (HepG2 hepatoma cell; Homo sapiens, HepG2, MTT, 48 h incubation, HepG-2) was 3.74 ± 1.73 µM. For the same compound, the “SI IC50 (L-02/HepG-2)” value (HepG2 hepatoma cell; selectivity index, IC50 (L-02)/IC50 (HepG-2)) was over 26.7, the IC50 (AGS cells; Homo sapiens, MTT, 48 h incubation, AGS) was 510 ± 450 nM and the “SI IC50 (L-02/AGS)” value (AGS cells; selectivity index, IC50 (L-02)/IC50 (AGS)) was over 196.0. For the same compound, the IC50 (L-02 normal liver cell) was over 100 µM and the “percentage of S cell population” value (BEL-7402 cells) was 4.44–19.35%.
